In test [1] the test system is MDA-MB-231 cells. As to the kind of experiment: Cell uptake of DOX@HAuNS and DOX@PEG-HAuNS (fluorescence and dark-field microscopy). It counts as cell-based, human. As to conditions: without NIR laser; 1 h to 48 h incubation. The method, then: MDA-MB-231 cells were transferred and cultured onto 20-mm glass cover slips in a 24-well plate and allowed to grow for 2 days. Then the medium was replaced with 1 mL of fresh culture medium containing free DOX, DOX@HAuNS, or DOX@PEG-HAuNS. After incubation for 1 hr or 48 h, the cell monolayer on the cover slip was removed, repeatedly rinsed with PBS, and then mounted for microscopic examination. The cellular fluorescence and dark-field light scattering images were examined under a Zeiss Axio Observer.Z1 fluorescence microscope (Carl Zeiss MicroImaging GmbH, USA) equipped with a dark-field condenser.
In a separated experiment, MDA-MB-231 cells cultured on 20-mm glass cover slips were irradiated with NIR laser (1.0 W/cm^2 for 3 min per treatment, 4 treatments in 2 h). Cell nuclei were stained with DAPI. The cellular fluorescence and light scattering images were obtained as described in the preceding paragraph.

Test [2] has as its system MDA-MB-231 cells. The test is described as follows: Cytotoxicity of DOX-HAuNS and DOX-PEG-HAuNS (MTT). It is filed as cell-based, human. The following applies: equivalent DOX concentration 10 μg/mL, no NIR. Here is the method: A total of 2.0×10^4 cells were plated in 96-well plates and incubated for 24 h to allow the cells to attach. The cells were exposed to free DOX, DOX@HAuNS, or DOX@PEG-HAuNS with various DOX concentrations. The cells were or were not irradiated with NIR laser at an output power of 2 W/cm^2 (3 min per treatment, 4 treatments in 2 h). Then the cells were incubated at 37° C. for a further 48 h. […] The data reported represented the means of triplicate measurements. In a separate experiment, the cells were exposed to HAuNS with various Au concentrations and then were or were not irradiated with NIR laser under the same conditions. Cell survival efficiency was measured after the incubation at 37° C. for 48 h.

As to `COc1cccc2c1C(=O)c1c(O)c3c(c(O)c1C2=O)C[C@@](O)(C(=O)CO)C[C@@H]3O[C@H]1C[C@H](N)[C@H](O)[C@H](C)O1` [free DOX, doxorubicin], the “cellular uptake and intracellular distribution” value in the test with MDA-MB-231 cells [1] was “taken up by the tumor cells and distributed to cell nuclei”. Besides, the cells killed with MDA-MB-231 cells [2] amounted to 77.4%.

The values above are taken from US20110318415A1, “Hollow Gold Nanospheres (HAuNSs) and HAuNSs-Loaded Microspheres Useful in Drug Delivery” (priority 2009, published 2011).
